In ChEMBL document CHEMBL1154663, “Synthesis, crystallization, and biological evaluation of an orally active prodrug of gemcitabine” (J Med Chem, 2009):

Tests used:
[1] = Stability in human Caco-2 cell homogenate assessed as half life; format: ADME, Colon
[2] = Stability in human small intestine homogenate assessed as hydrolysis rate at 96 uM; format: ADME, tissue-based; settings: tissue homogenate
[3] = Stability in CD1 mouse small intestine homogenate assessed as hydrolysis rate after 30 mins at 96 uM; format: ADME, tissue-based; settings: read-out: Activity
[4] = Stability in CD1 mouse small intestine homogenate assessed as hydrolysis rate minute at 96 uM; format: ADME, tissue-based; settings: tissue homogenate
[5] = Stability in human small intestine homogenate assessed as hydrolysis rate after 30 mins at 96 uM; format: ADME, tissue-based; settings: read-out: Activity
Blood = assay: Drug level in CD1 mouse portal blood assessed as gemcitabine level at 14.3 mg/kg, po after 5 mins; format: ADME, organism-based; parameters: dose 14.3 mg/kg, route oral; settings: in vivo
HCT-116 [6] = assay: Antitumor activity in human HCT116 cells xenografted CD1 mouse assessed as maximum tumor reduction at 160 mg/kg, ip administered as total 4 doses for every 3 days measured after 6 weeks; format: functional; parameters: scale not given: the % may be the effect or the level left; settings: route intraperitoneal
HCT-116 [7] = assay: Antitumor activity in human HCT116 cells xenografted CD1 mouse assessed as maximum tumor reduction at 7.55 mg/kg, po administered daily for 14 days measured after 6 weeks; format: functional; parameters: scale not given: the % may be the effect or the level left
[8] = AUC in po dosed CD1 mouse; format: ADME, organism-based; settings: plasma
Mus musculus [9] = assay: Gemcitabine AUC in CD1 mouse at 14.3 mg/kg, po; format: ADME, organism-based; parameters: dose 14.3 mg/kg, route oral; settings: in vivo
[10] = Solubility in buffer solution at pH 1 after 4 hrs at 40 degC; format: physicochemical; settings: pH 1, 4 h
[11] = Solubility in buffer solution at pH 8 after 4 hrs at 40 degC; format: physicochemical; settings: pH 8, 4 h
[12] = Tmax in po dosed CD1 mouse; format: ADME, organism-based; settings: in vivo
[13] = Solubility in buffer solution at pH 4 after 4 hrs at 40 degC; format: physicochemical; settings: pH 4, 4 h
[14] = Solubility in buffer solution at pH 6 after 4 hrs at 40 degC; format: physicochemical; settings: pH 6, 4 h
Mus musculus [15] = assay: Gemcitabine Cmax in CD1 mouse at 14.3 mg/kg, po; format: ADME, organism-based; parameters: dose 14.3 mg/kg, route oral; settings: in vivo
[16] = Chemical stability in buffer solution assessed as hydrolysis at pH 4 after 4 hrs at 40 degC; format: physicochemical; settings: read-out: solubility
[17] = Stability in human liver S9 fraction assessed as hydrolysis rate at 100 uM; format: ADME, subcellular; settings: s9, 100 µM
[18] = Cmax in po dosed CD1 mouse; format: ADME, organism-based; parameters: route oral; settings: in vivo
[19] = Chemical stability in buffer solution assessed as hydrolysis at pH 6 after 4 hrs at 40 degC; format: physicochemical; settings: read-out: solubility
HCT-116 [20] = assay: Antitumor activity in human HCT116 cells xenografted CD1 mouse assessed as maximum tumor reduction at 3.77 mg/kg, po administered daily for 14 days measured after 6 weeks; format: functional; parameters: scale not given: the % may be the effect or the level left
[21] = Stability in CD1 mouse liver S9 fraction assessed as hydrolysis rate at 100 uM; format: ADME, subcellular; settings: s9, 100 µM
[22] = Chemical stability in buffer solution assessed as hydrolysis at pH 8 after 4 hrs at 40 degC; format: physicochemical; settings: read-out: solubility
[23] = Solubility in buffer solution at pH 2 after 4 hrs at 40 degC; format: physicochemical; settings: pH 2, 4 h
[24] = Chemical stability in buffer solution assessed as hydrolysis at pH 2 after 4 hrs at 40 degC; format: physicochemical; settings: read-out: solubility
[25] = Drug level in CD1 mouse portal blood at 14.3 mg/kg, po after 5 mins; format: ADME, organism-based; parameters: dose 14.3 mg/kg, route oral; settings: read-out: Drug uptake
[26] = Chemical stability in buffer solution assessed as hydrolysis at pH 1 after 4 hrs at 40 degC; format: physicochemical; settings: read-out: solubility

`CC[C@H](C)[C@H](N)C(=O)OC[C@H]1O[C@@H](n2ccc(N)nc2=O)C(F)(F)[C@@H]1O` gave a half-life [1] of 75 min, an Activity [2] of 3.7 nmol/mg/min and a metabolised at 0.5 h, 96 µM [3] of 100%. The Activity [4] was 2.3 nmol/mg/min and the metabolised at 0.5 h, 96 µM [5] was 100%.

In the case of `Cl.Nc1ccn([C@@H]2O[C@H](CO)[C@@H](O)C2(F)F)c(=O)n1` [GEMCITABINE HYDROCHLORIDE], the Drug uptake (Blood) is reported as 99 ng/mL and the Activity (HCT-116 [6]) is reported as 71.5%.

Molecule `CCCC(CCC)C(=O)Nc1ccn([C@@H]2O[C@H](CO)[C@@H](O)C2(F)F)c(=O)n1` [LY-2334737] has an Activity (HCT-116 [7]) of 67.1%, an AUC [8] of 536 ng·h/mL and an AUC (Mus musculus [9]) of 778 ng·h/mL. It also gave a solubility [10] of 1.12%, an Activity [11] of over 2% and an Activity [2] of under 0.01 nmol/mg/min. The Tmax [12] was 30 min, the solubility [13] was over 2% and the solubility [14] was over 2%. For the same molecule, the Cmax (Mus musculus [15]) was 373 ng/mL, the metabolised at 0.5 h, 96 µM [3] was 1% and the degraded at 4 h [16] was 2%. For the same molecule, the Activity [17] was 27 pmol/min/mg, the Cmax [18] was 535 ng/mL and the Activity [4] was under 0.01 nmol/mg/min. It also gave a metabolised at 0.5 h, 96 µM [5] of 1%, a degraded at 4 h [19] of 0% and an Activity (HCT-116 [20]) of 56.3%. The Activity [21] was 11 pmol/mg/min, the degraded at 4 h [22] was 0% and the solubility [23] was 1.79%. It also gave a degraded at 4 h [24] of 12%, a concentration at 5 min [25] of 653 ng/mL and a degraded at 4 h [26] of 21%.
